Assay results as given in US7247634B2, “Rifamycin derivatives effective against drug-resistant microbes” (Cumbre Pharmaceuticals Inc., priority 2004, dated 2007).
≈ marks a conversion by molar mass, not a printed value.

Tests used:
Format in all cases: cell-based
[1] = system: Mycobacterium smegmatis ATCC700084; assay: MIC, microbroth dilution (NCCLS); conditions: Mycolicibacterium smegmatis, rifS strain, Middlebrook Broth plus ADC Enrichment, 37° C., read-out: Antimicrobial activity (MIC)
[2] = system: Staphylococcus epidermidis ATCC12228; assay: MIC, microbroth dilution (NCCLS); conditions: rifS strain, Cation-Adjusted Mueller-Hinton Broth, 37° C., read-out: Antimicrobial activity (MIC)
[3] = system: Escherichia coli ATCC25922; assay: MIC, microbroth dilution (NCCLS); conditions: rifS strain, Cation-Adjusted Mueller-Hinton Broth, 37° C., read-out: Antimicrobial activity (MIC)
[4] = system: Streptococcus pneumoniae ATCC6303; assay: MIC, microbroth dilution (NCCLS); conditions: rifS strain, THY Broth with 1 mg/mL catalase, 5% CO2, 37° C., read-out: Antimicrobial activity (MIC)
[5] = system: Streptococcus pyogenes ATCC19615; assay: MIC, microbroth dilution (NCCLS); conditions: rifS strain, THY Broth, 37° C., read-out: Antimicrobial activity (MIC)
[6] = system: Staphylococcus aureus ATCC29213; assay: MIC, microbroth dilution (NCCLS); conditions: rifS strain, Cation-Adjusted Mueller-Hinton Broth, 37° C., read-out: Antimicrobial activity (MIC)
[7] = system: Haemophilus influenzae ATCC10211; assay: MIC, microbroth dilution (NCCLS); conditions: rifS strain, BHI Broth with NAD and hematin, 37° C., read-out: Antimicrobial activity (MIC)
[8] = system: Enterococcus faecalis ATCC29212; assay: MIC, microbroth dilution (NCCLS); conditions: rifS strain, BHI Broth, 37° C., read-out: Antimicrobial activity (MIC)
[9] = system: Staphylococcus aureus ATCC29213 rpoB^D417Y; assay: microbe, parasite or virus in culture; conditions: ATCC29213, read-out: Antimicrobial activity (MIC)
Method: (§1) Representative compounds were assayed for antimicrobial activity as follows: Minimum Inhibitory Concentrations (“MICs”) were determined by the microbroth dilution method as per NCCLS guidelines (National Committee for Clinical Laboratory Standards. 2000. Methods for dilution antimicrobial susceptibility tests for bacteria that grow aerobically, 5th ed. M7-A5. National Committee for Clinical Laboratory Standards, Wayne, Pa.), except that all growth incubations were conducted at 37° C. Bacterial cultures were tested in the following bacteriological media: S. aureus, S. epidermidis, and E. coli in Cation-Adjusted Mueller-Hinton Broth, S. pneumoniae in THY Broth supplemented with 1 mg/mL catalase under 5% CO2 atmosphere, S. pyogenes in THY Broth, E. faecalis in BHI Broth, H. influenzae in BHI Broth supplemented with 0.75 μL of 1 mg/mL NAD and 150 μL of 1 mg/ml hematin per 5 mL, and M. smegmatis in Middlebrook Broth plus ADC Enrichment.
(§2) S. aureus ATCC 29213 RpoB^H418Y is a rifampin-resistant strain with a mutation in RNA polymerase, the biological target of rifamycin antibiotics. […] S. aureus EN1252a gyrA^S84L grlA^S80F is a quinolone-resistant strain due to double mutations to DNA gyrase and topoisomerase IV, the two biological targets for quinolone antibiotics.

[10] = system: Staphylococcus aureus ATCC29213 rpoB^H418Y; assay: microbe, parasite or virus in culture; conditions: ATCC29213, read-out: Antimicrobial activity (MIC)
Method: as §1, §2

[11] = system: Staphylococcus aureus EN1252a gyrA^S84L grlA^S80F; assay: microbe, parasite or virus in culture; conditions: read-out: Antimicrobial activity (MIC)
Method: as §1, §2

Row | SMILES | MIC [1] | MIC [2] | MIC [3] | MIC [4] | MIC [5] | MIC [6] | MIC [7] | MIC [8] | MIC [9] | MIC [10] | MIC [11]
1 | CO[C@H]1/C=C/O[C@@]2(C)Oc3c(C)c(O)c4c(c3C2=O)C(=O)C(N2CCN(c3nc5c(cc3F)c(=O)c(C(=O)O)cn5-c3ccc(F)cc3F)CC2)=C(NC(=O)/C(C)=C\C=C\[C@H](C)[C@H](O)[C@@H](C)[C@@H](O)[C@@H](C)[C@H](OC(C)=O)[C@@H]1C)C4=O [Example 5, 3-[4-(3-Carboxy-1-(2,4-difluorophenyl)-6-fluoro-4-oxo-1,4-dihydronaphthyridin-7-yl)piperazin-1-yl]rifamycin S] | 0.5 to 64 µg/mL | 0.008 to 0.063 µg/mL (≈ 0.00729 to 0.0574 µM) | 0.125 to 8 µg/mL (≈ 0.114 to 7.29 µM) | 0.008 to 0.125 µg/mL (≈ 0.00729 to 0.114 µM) | 0.008 to 0.063 µg/mL (≈ 0.00729 to 0.0574 µM) | 0.004 to 0.5 µg/mL (≈ 0.00364 to 0.455 µM) | 0.125 to 2 µg/mL (≈ 0.114 to 1.82 µM) | 2 to 32 µg/mL (≈ 1.82 to 29.1 µM) | 0.06 to 32 µg/mL (≈ 0.0546 to 29.1 µM) | 0.06 to 16 µg/mL (≈ 0.0546 to 14.6 µM) | 0.004 to 0.5 µg/mL (≈ 0.00364 to 0.455 µM)
2 | CO[C@H]1/C=C/O[C@@]2(C)Oc3c(C)c(O)c4c(c3C2=O)C(=O)C(N2CCC(CCCC3CCN(c5nc6c(cc5F)c(=O)c(C(=O)O)cn6-c5ccc(F)cc5F)CC3)CC2)=C(NC(=O)/C(C)=C\C=C\[C@H](C)[C@H](O)[C@@H](C)[C@@H](O)[C@@H](C)[C@H](OC(C)=O)[C@@H]1C)C4=O [Example 6, 3-[4-[3-[1-[3-Carboxy-1-(2,4-difluorophenyl)-6-fluoro-4-oxo-1,4-dihydronaphthyridin-7-yl]piperidin-4-yl]propyl]piperidin-1-yl]rifamycin S] | 0.5 to 64 µg/mL | 0.008 to 0.063 µg/mL (≈ 0.00654 to 0.0515 µM) | 0.125 to 8 µg/mL (≈ 0.102 to 6.54 µM) | 0.008 to 0.125 µg/mL (≈ 0.00654 to 0.102 µM) | 0.008 to 0.063 µg/mL (≈ 0.00654 to 0.0515 µM) | 0.004 to 0.5 µg/mL (≈ 0.00327 to 0.409 µM) | 0.125 to 2 µg/mL (≈ 0.102 to 1.64 µM) | 2 to 32 µg/mL (≈ 1.64 to 26.2 µM) | 0.06 to 32 µg/mL (≈ 0.0491 to 26.2 µM) | 0.06 to 16 µg/mL (≈ 0.0491 to 13.1 µM) | 0.004 to 0.5 µg/mL (≈ 0.00327 to 0.409 µM)
3 | CO[C@H]1/C=C/O[C@@]2(C)Oc3c(C)c(O)c4c(c3C2=O)C(=O)C(N[C@@H]2CCN(c3cc5c(cc3F)c(=O)c(C(=O)O)cn5C3CC3)C2)=C(NC(=O)/C(C)=C\C=C\[C@H](C)[C@H](O)[C@@H](C)[C@@H](O)[C@@H](C)[C@H](OC(C)=O)[C@@H]1C)C4=O [Example 8, (R)-3-[1-(3-Carboxy-1-cyclopropyl-6-fluoro-4-oxo-1,4-dihydroquinolin-7-yl)-pyrrolidin-3-ylamino]rifamycin S] | 0.5 to 64 µg/mL | 0.008 to 0.063 µg/mL (≈ 0.0078 to 0.0615 µM) | 0.125 to 8 µg/mL (≈ 0.122 to 7.8 µM) | 0.008 to 0.125 µg/mL (≈ 0.0078 to 0.122 µM) | 0.008 to 0.063 µg/mL (≈ 0.0078 to 0.0615 µM) | 0.004 to 0.5 µg/mL (≈ 0.0039 to 0.488 µM) | 0.125 to 2 µg/mL (≈ 0.122 to 1.95 µM) | 2 to 32 µg/mL (≈ 1.95 to 31.2 µM) | 0.06 to 32 µg/mL (≈ 0.0585 to 31.2 µM) | 0.06 to 16 µg/mL (≈ 0.0585 to 15.6 µM) | 0.004 to 0.5 µg/mL (≈ 0.0039 to 0.488 µM)
4 | CO[C@H]1/C=C/O[C@@]2(C)Oc3c(C)c(O)c4c(c3C2=O)C(=O)C(N[C@H]2CCN(c3cc5c(cc3F)c(=O)c(C(=O)O)cn5C3CC3)C2)=C(NC(=O)/C(C)=C\C=C\[C@H](C)[C@H](O)[C@@H](C)[C@@H](O)[C@@H](C)[C@H](OC(C)=O)[C@@H]1C)C4=O [Example 9, (S)-3-[1-(3-Carboxy-1-cyclopropyl-6-fluoro-4-oxo-1,4-dihydroquinolin-7-yl)-pyrrolidin-3-ylamino]rifamycin S] | 0.5 to 64 µg/mL | 0.008 to 0.063 µg/mL (≈ 0.0078 to 0.0615 µM) | 0.125 to 8 µg/mL (≈ 0.122 to 7.8 µM) | 0.008 to 0.125 µg/mL (≈ 0.0078 to 0.122 µM) | 0.008 to 0.063 µg/mL (≈ 0.0078 to 0.0615 µM) | 0.004 to 0.5 µg/mL (≈ 0.0039 to 0.488 µM) | 0.125 to 2 µg/mL (≈ 0.122 to 1.95 µM) | 2 to 32 µg/mL (≈ 1.95 to 31.2 µM) | 0.06 to 32 µg/mL (≈ 0.0585 to 31.2 µM) | 0.06 to 16 µg/mL (≈ 0.0585 to 15.6 µM) | 0.004 to 0.5 µg/mL (≈ 0.0039 to 0.488 µM)
